Measurements: article PMC10269664, “Cinnamaldehyde Targets the LytTR DNA-Binding Domain of the Response Regulator AgrA to Attenuate Biofilm Formation of Listeria monocytogenes” (Microbiology Spectrum, 2023)
Positions count from the first letter of the chain named.

Key:
[1] = biological target: T1, AgrA (Listeria monocytogenes EGD-e) (UniProt Q8YAR4); assay: EMSA
T1 sequence: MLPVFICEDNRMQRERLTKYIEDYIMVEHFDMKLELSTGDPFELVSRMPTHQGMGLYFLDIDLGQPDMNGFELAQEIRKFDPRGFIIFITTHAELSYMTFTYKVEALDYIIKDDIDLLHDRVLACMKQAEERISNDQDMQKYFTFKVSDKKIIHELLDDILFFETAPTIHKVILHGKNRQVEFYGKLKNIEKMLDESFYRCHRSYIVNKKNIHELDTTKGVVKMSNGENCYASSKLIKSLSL

[2] = biological target: T2, AgrA N178A N178A (Listeria monocytogenes EGD-e) (UniProt Q8YAR4); assay: EMSA
T2 sequence: T1 sequence with N178A

AgrA [3] = biological target: T3, AgrA (Listeria monocytogenes, UniProt Q8YAR4); assay: microscale thermophoresis; format: binding; conditions: read-out: Mean Kd ± SD
T3 construct: gene lmo0051; entire protein, 242 residues, pET-28a His-tag, E. coli BL21(DE3), fluorescently labelled for MST
From the text: microscale thermophoresis on AgrA

AgrA [4] = biological target: T4, AgrA (Listeria monocytogenes, UniProt Q8YAR4, K177A); assay: biochemical
T4 construct: gene lmo0051

AgrA [5] = biological target: T5, AgrA (Listeria monocytogenes, UniProt Q8YAR4, D159A); assay: biochemical
T5 construct: gene lmo0051

AgrA [6] = biological target: T6, AgrA (Listeria monocytogenes, UniProt Q8YAR4, G176A); assay: biochemical
T6 construct: gene lmo0051

AgrA [7] = biological target: T7, AgrA (Listeria monocytogenes, UniProt Q8YAR4, N178A); assay: biochemical
T7 construct: gene lmo0051

AgrA [8] = biological target: T8, AgrA (Listeria monocytogenes, UniProt Q8YAR4, D158A); assay: biochemical
T8 construct: gene lmo0051

AgrA [9] = biological target: T9, AgrA (Listeria monocytogenes, UniProt Q8YAR4, R179A); assay: biochemical
T9 construct: gene lmo0051

AgrA [10] = biological target: T10, AgrA (Listeria monocytogenes, UniProt Q8YAR4, H29A); assay: biochemical
T10 construct: gene lmo0051

AgrCFL = biological target: T11, AgrCFL (Listeria monocytogenes, UniProt Q8YAR5); conditions: 10 μM ATP; 37 °C
T11 construct: gene lmo0050
T11 sequence (Q8YAR5 entry or part of it): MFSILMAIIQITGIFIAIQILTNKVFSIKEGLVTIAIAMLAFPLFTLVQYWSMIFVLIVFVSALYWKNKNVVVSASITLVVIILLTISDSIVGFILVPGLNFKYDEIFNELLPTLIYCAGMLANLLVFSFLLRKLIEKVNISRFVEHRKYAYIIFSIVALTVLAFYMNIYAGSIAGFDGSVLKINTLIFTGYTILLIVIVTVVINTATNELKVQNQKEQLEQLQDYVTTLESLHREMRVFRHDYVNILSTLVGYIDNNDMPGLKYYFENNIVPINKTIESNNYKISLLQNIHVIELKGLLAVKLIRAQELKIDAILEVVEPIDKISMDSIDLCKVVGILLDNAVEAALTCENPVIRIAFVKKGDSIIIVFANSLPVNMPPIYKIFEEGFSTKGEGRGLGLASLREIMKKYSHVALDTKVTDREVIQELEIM

AgrCCyto = biological target: T12, AgrCCyto (Listeria monocytogenes, UniProt Q8YAR5); conditions: 10 μM ATP; 37 °C
T12 construct: gene lmo0050
T12 sequence (Q8YAR5 entry or part of it): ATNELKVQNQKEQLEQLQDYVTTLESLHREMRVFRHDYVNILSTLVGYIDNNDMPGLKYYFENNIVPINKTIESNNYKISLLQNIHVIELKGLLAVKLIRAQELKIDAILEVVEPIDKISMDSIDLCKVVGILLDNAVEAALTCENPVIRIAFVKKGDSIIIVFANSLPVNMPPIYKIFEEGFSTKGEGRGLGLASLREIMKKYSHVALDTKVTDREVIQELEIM

Question: With “CTAATTCACCTCCACTAATATTTTACAACGAATTTACCCATAATAACCAAAAATGTAATGAAATGTCCGATTCTTGTCATGAACGACCAAAAAAGAGCAGAATTGCCGATTTTTTGGATACATTTCAGAATATTCGAACGTGTAAAAAGGACTGTATAATAGGCTTAAAAACCCATATTAATATTTTATTTAAGTGAGTTTATTCATAAAAAAAACCAACTGCAAAAGAATGTTCACAGTTGGCTTTTCCATTTTA (double strand) [agr promoter P2]” as the compound, how does the binding [1] read?
Answer: Its binding is “binds”.

Question: What about the binding [2] of the same compound?
Answer: The binding was “binds more weakly”.

Question: Which results are given for `O=CC=Cc1ccccc1` [cinnamaldehyde]?
Answer: Kd (AgrA [3]): 55.9 ± 2.38 µM; Kd (AgrA [4]): 58.3 ± 4.42 µM; Kd (AgrA [5]): 59 ± 3.44 µM; Kd (AgrA [6]): 53.2 ± 1.52 µM; Kd (AgrA [7]): 138 ± 11.4 µM; Kd (AgrA [8]): 62 ± 4.8 µM; Kd (AgrA [9]): 175 ± 17.8 µM; Kd (AgrA [10]): 57.7 ± 6.47 µM

Question: Which results are given for `Nc1ncnc2c1ncn2[C@@H]1O[C@H](COP(=O)(O)OP(=O)(O)OP(=O)(O)O)[C@@H](O)[C@H]1O` [ATP]?
Answer: Kinase-Lumi chemiluminescence, residual ATP (AgrCFL): AgrCFL was also subjected to the kinase assay, and similar results were observed; Kinase-Lumi chemiluminescence, residual ATP (AgrCCyto): After incubation, the remaining ATP was reduced with increasing concentrations of AgrCCyto
